Values of other authors, collected in patent publication US20050260613A1 (priority 2003, published 2005).

Tested on: AD patients
Settings: presence of the ApoE4 allele

For Nc1c2c(nc3ccccc13)CCCC2 [tacrine], the “response to treatment in presence of the ApoE4 polymorphism” value is given as “reduced response”.
